Activity data for five compounds are collected here from ChEMBL document CHEMBL1141013, “Novel oxime and oxime ether derivatives of 12,14-dichlorodehydroabietic acid: design, synthesis, and BK channel-opening activity” (Bioorg Med Chem Lett, 2008).

In the assay the target is Calcium-activated potassium channel subunit alpha-1 (Homo sapiens) (UniProt Q12791). Kind of assay: Activation of human BKalpha channel expressed in CHOK1 cells assessed as increase in ionic current at 30 uM by patch clamp method relative to control. It counts as cell-based. The settings on record: CHO-K1. (In general: The patch-clamp technique gives a direct electrical read-out from membranes.)
Sequence of Calcium-activated potassium channel subunit alpha-1 (Homo sapiens) (Q12791 whole entry): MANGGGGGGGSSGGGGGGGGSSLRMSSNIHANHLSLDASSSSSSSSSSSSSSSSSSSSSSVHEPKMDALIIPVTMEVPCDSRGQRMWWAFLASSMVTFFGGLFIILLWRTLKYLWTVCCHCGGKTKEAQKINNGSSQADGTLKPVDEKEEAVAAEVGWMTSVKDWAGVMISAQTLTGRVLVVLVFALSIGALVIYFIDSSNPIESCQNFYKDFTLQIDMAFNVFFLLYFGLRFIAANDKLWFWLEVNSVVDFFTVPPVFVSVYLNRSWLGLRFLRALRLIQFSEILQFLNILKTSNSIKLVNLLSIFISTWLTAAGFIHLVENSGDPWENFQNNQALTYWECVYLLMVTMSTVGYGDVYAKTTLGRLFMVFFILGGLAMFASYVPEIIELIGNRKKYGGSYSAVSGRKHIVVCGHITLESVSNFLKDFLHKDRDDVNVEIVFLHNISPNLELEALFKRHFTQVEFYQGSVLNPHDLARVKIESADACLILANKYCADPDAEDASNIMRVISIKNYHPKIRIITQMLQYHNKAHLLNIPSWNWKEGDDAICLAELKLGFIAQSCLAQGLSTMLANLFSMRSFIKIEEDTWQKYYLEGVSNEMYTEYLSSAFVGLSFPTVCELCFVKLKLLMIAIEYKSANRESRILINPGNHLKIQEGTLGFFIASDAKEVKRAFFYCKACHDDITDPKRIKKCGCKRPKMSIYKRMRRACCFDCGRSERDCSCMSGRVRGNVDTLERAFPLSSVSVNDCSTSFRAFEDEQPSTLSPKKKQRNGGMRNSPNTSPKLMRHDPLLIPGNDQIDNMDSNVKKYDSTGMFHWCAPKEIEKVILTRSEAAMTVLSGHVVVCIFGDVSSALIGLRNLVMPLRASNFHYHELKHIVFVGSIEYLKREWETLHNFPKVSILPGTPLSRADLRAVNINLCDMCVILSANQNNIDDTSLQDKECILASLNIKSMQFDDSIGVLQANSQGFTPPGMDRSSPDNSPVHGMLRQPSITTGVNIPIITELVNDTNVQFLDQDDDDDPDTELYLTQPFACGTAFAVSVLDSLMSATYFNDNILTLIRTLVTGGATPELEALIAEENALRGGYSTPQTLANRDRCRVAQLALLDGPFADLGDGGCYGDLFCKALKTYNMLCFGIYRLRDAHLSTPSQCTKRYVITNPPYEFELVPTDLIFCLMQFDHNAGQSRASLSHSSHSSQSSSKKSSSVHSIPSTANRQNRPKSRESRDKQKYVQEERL
With `O=c1[nH]c2cc(C(F)(F)F)ccc2n1-c1cc(C(F)(F)F)ccc1O`, the Activity was determined as 325%.

In the case of `CC(C)c1c(Cl)cc2c(c1Cl)/C(=N/O)C[C@H]1[C@](C)(C(=O)O)CCC[C@]21C`, the Activity worked out at 242%.

`C=CCO/N=C1\C[C@H]2[C@](C)(C(=O)O)CCC[C@]2(C)c2cc(Cl)c(C(C)C)c(Cl)c21`: the Activity is 566%.

As to `CO/N=C1\C[C@H]2[C@](C)(C(=O)O)CCC[C@]2(C)c2cc(Cl)c(C(C)C)c(Cl)c21`, the Activity is 410%.

Turning to `C#CCO/N=C1\C[C@H]2[C@](C)(C(=O)O)CCC[C@]2(C)c2cc(Cl)c(C(C)C)c(Cl)c21`, the Activity is 425%.
